Reference: article PMC9271048, “Probing strigolactone perception mechanisms with rationally designed small-molecule agonists stimulating germination of root parasitic weeds” (Nature Communications, 2022)
Read-outs that look alike come from different tables or passages of the source.

How the values were obtained:
ShHTL7 [1] = biological target: T1, ShHTL7 (Striga hermonthica, UniProt A0A0M3PNA2); assay: Lineweaver-Burk plot analysis of ShHTL7 inhibition (YLG); type: biochemical; details: ShHTL7-mediated hydrolysis of YLG; no significant change of Vmax
Method: 0.1 Å width; second, the number of data points of each bin was counted; third, the density of each bin is calculated using the number of D5′C-OG-DNE2-HG data points fall in the corresponding bin being divided by the total number of the distance-distance data points; last, the Z(A,D) (shown in Equation 1) was constructed by fitting the data with the two-dimensional Gaussian function using the non-linear surface fitting methods in Origin Lab.
In this equation, Z is the conformation probability density of D5′C-OG and DNE2-HG in the calculation system. µ is the mean of the normal distribution. σ is the standard deviation.
The PPC of each system was calculated using the bivariate integration of the corresponding CPDF over the interval 1.5–3.8 Å for D5′C-OG, and 1.6–3.5 Å for DNE2-HG with Equation 2 using Matlab software (The Math Works, Natick, MA).
The final PPC value of each system was the averaged data of every 200 ns in the MD simulation.
The structure figures were analyzed by PYMOL software8.
The structures of (S)-4a were constructed and optimized by Sybyl 6.9 (Tripos Inc., St. Louis, MO).
DFT calculations of (S)-4a were performed by Gaussian 09 program package at b3lyp/6-31g(d) level9.
The results were analyzed by GaussView 5.0.
Determination of the Inhibition Model
For Lineweaver-Burk plot analysis, the competitive inhibition of ShHTL7 by compounds 1, 2g, and 2h was performed by using YLG as the substrate at 25 °C. The excitation and emission […]
Supplementary Fig. 7. Lineweaver−Burk plots for the inhibition of ShHTL7 by compounds 1 (a), 2g (b), and 2h (c). Error bar indicates SD (n = 3 biologically independent experiments).
(§1) (1 picture or pasted object on this page, not shown here)
[1] Yao, R. et al. DWARF14 is a non-canonical hormone receptor for strigolactone. Nature 536, 469– […]
[2] de Saint Germain, A. et al. An histidine covalent receptor and butenolide complex mediates strigolactone perception.
[3] […]
A: We have evaluated inhibitory kinetics of the three representative compounds 1, 2g, and 2h on ShHTL7-mediated hydrolysis of YLG. […]

P. aegyptiaca seeds = assay: P. aegyptiaca seed germination assay; type: in vivo, Phelipanche aegyptiaca; details: for germination of P. aegyptiaca seeds, source data average: 10 μM, Fig. 1d source data, average of 3; for P. aegyptiaca germination(%): Supplementary Table 1, compounds tested at 10 μM, means ± SD, n = 3
Method: P. aegyptiaca seeds were harvested from Xinjiang province, China in 2017. The seeds were surface sterilized using 1% NaClO solution for 2 min and then washed with distilled water six times. For seed germination assay, about 20 pieces of glass fiber-filter paper discs (15 mm diameter, Whatman GF/B) were placed separately on two layers of filter papers (9 cm diameter, Whatman) in a Petri dish. Five milliliters of distilled water was added to each Petri dish to wet the papers. Approximately 40–90 sterilized seeds were spread onto each glass fiber-filter paper disc. After the seeds were conditioned in the dark at 25 °C for 4 days[48], glass fiber-filter paper discs were blotted dry on filter papers (9 cm) and transferred to the wells of 24-well cell culture plates. The testing compounds were dissolved in acetone and diluted with H2O (VH2O/Vacetone = 999/1) just before use[49]. rac-GR24 and 1‰ acetone solution were used as positive and negative controls, respectively. One hundred microliters of the test solution was added to each well of the plates, and all treatments were performed in three biological repeats. The plates were sealed and incubated in the dark at 25 °C for a week. The experiments were performed at least three times. The germinated seeds were observed by using an electronic magnifier at ×20 magnification.

ShHTL7 [2] = biological target: T1, ShHTL7; assay: biochemical; type: binding
Method: We used a sensitive, high-throughput Surface plasmon resonance (SPR) method to examine the binding affinities of the 51 candidates to the recombinant ShHTL7 protein, which was immobilized on the CM5 sensor chip. rac-GR24 was used as a positive control.
The interactions of small molecules with recombinant ShHTL7 were evaluated using the Biacore T200 system (GE Healthcare, USA) at 25 °C[47]. The purified ShHTL7 protein was immobilized on a CM5 sensor chip using the standard amine coupling procedure. […] PBS-P (10 mM phosphate buffer, 2.7 mM KCl, 137 mM NaCl, 0.05% Surfactant P20) containing 0.5% DMSO was used as the running buffer. For the screening experiments, candidates with different structures at 50 μM in the running buffer were injected individually at a flow rate of 30 μL min^−1. For binding affinity studies, compounds with different concentrations in running buffer were used. During the experiments, both the contact and dissociation times were set as 1 min. Data analysis was performed using the Biacore Evaluation Software (T200 Version 2.0). The affinity values (KD) were obtained by the kinetics analysis or the steady-state affinity method.

ShHTL7 [3] = biological target: T1, ShHTL7; assay: Competitive inhibition of ShHTL7 with Yoshimulactone Green (YLG) as substrate; type: biochemical; details: YLG used as the substrate, means ± SD, n = 3
Method: Based on the structural feature of the lead compound 2h, we selected three regions to perform further modification (Supplementary Fig. 6), to try to further improve bioactivity. Insertion of a carbonyl group between the bicyclo[2.2.1]hept-5-en-2-yl group and the piperazine ring was detrimental to binding affinity (Supplementary Fig. 6, region A). Removal of an oxygen atom in region B was found unfavorable to binding affinity as well. Therefore, we focused on modifying the benzene ring (region C) for 2h. A series of compounds with different groups at region C was synthesized (Supplementary Scheme 1). […] As SPR just measures the binding ability, another independent assay by using Yoshimulactone Green (YLG) as the fluorescent substrate was performed to determine the half-maximal inhibitory concentration (IC50) of these compounds against ShHTL7[22].
The excitation and emission wavelengths of YLG are 480 and 520 nm, respectively. We used a fluorescence spectrophotometer (CARY Eclipse) to detect the fluorescence intensity change of YLG during the enzymatic hydrolysis assay process. All the testing compounds and YLG were dissolved in DMSO and prepared as stock solutions just before use. […] The changes of fluorescence at 520 nm of each well were recorded every 1 min for 30 min. Using the reaction mixture without adding enzyme and tested compounds as the background control. After subtracting the background hydrolysis, a linear fluorescence increase in 8 min was used for further inspection. The IC50 values were determined via fitting relative inhibition percentages with the varying concentrations of compounds in Microsoft Excel.

ShHTL7 [4] = biological target: T1, ShHTL7; assay: ShHTL7-hydrolysis reaction analysis (HPLC); type: biochemical; details: authors' response to reviewer
Method: Compounds 4a, (R)- and (S)-4a, 4g-i, and rac-GR24 were dissolved in DMSO and prepared as stock solution ([…]) just before use. A 200 μL of the reaction solution consisting of PBS buffer (pH 7.3), 10 μM samples, and 10 μg recombinant ShHTL7 or its mutants was incubated at 30 °C for 30 min; with the reaction solution (200 μL) containing PBS buffer (pH 7.3) and 10 μM samples as the blank control[40],[52]. Subsequently, the reaction was terminated by adding 200 μL of methanol, and then the reaction mixture was shaken for 10 s and centrifuged at 5310 × g for 60 s. The supernatant was filtered and the remaining amount of samples was analyzed by HPLC. The relative percentages of hydrolysis were obtained by using the amount of compounds in blank control as reference.
Supplementary Fig. 11. Hydrolysis of 4a, (R)-4a, (S)-4a, 4g-i, and rac-GR24 by ShHTL7 at 30 °C for 30 min. The remaining amounts of compounds in recombinant ShHTL7 protein and buffer solution were determined by HPLC analysis. The relative percentages of hydrolysis were calculated by using the amount of compounds in the buffer as reference. The error bar indicates SD (n = 3 biologically independent experiments).
as §1

T1 sequence (A0A0M3PNA2 entry or part of it): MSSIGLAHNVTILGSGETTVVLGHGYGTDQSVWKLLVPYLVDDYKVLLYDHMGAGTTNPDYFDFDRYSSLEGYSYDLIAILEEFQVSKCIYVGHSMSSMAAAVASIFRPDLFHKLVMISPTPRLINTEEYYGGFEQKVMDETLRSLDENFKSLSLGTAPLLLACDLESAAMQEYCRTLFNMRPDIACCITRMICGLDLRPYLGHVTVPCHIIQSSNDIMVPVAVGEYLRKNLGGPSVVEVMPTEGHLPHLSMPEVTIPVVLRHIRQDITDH

SMILES | inhibition manner (Lineweaver-Burk plot) (ShHTL7 [1]) | germination of P. aegyptiaca seeds, source data average (P. aegyptiaca seeds) [%] | P. aegyptiaca germination(%) (P. aegyptiaca seeds) | Kd (ShHTL7 [2]) [µM] | IC50 (ShHTL7 [3]; read-out: IC50 (Supplementary Table 1)) [µM] | hydrolysis by ShHTL7 (ShHTL7 [4]) | IC50 (ShHTL7 [3]; IC50 (Supplementary Table 1)) [µM]
O=C(c1ccc(F)cc1)N1CCN(CC2CC=CCC2)CC1 (stereo not drawn) [compound 1, (4-(cyclohex-3-en-1-ylmethyl)piperazin-1-yl)(4-fluorophenyl)methanone] | in a competitive manner | 40.0744 | 39.4 | 13.3 ± 1.4 | 15.9 ± 1.47 |  | 
O=C(COc1ccc(Cl)cc1)N1CCN(CC2CC=CCC2)CC1 (stereo not drawn) [2g] | in a competitive manner |  |  | 1.02 ± 0.11 |  | could not be hydrolyzed by ShHTL7 | 
O=C(c1ccc([N+](=O)[O-])cc1)N1CCN(CC2CC3C=CC2C3)CC1 (stereo not drawn) [2e] |  |  |  | 8.77 ± 0.11 |  | could not be hydrolyzed by ShHTL7 | 
Cc1ccc(OCC(=O)N2CCN(CC3CC4C=CC3C4)CC2)cc1 (stereo not drawn) [2h] | in a competitive manner | 25.888 | 27.4 | 0.96 |  |  | 22 ± 4.97
